Assay results published in patent US8722895B2, “Prolyl hydroxylase inhibitors and method of use” (Akebia Therapeutics Inc., priority 2006, dated 2014).

Legend:
EPO = assay: Mouse Serum EPO Assay (mouse ischemic hindlimb study); format: in vivo; details: for EPO response: in vivo response, mouse serum EPO
Description: (§1) Mouse Ischemic Hindlimb Study
(§2) All animal work is conducted in accordance with the Guide for the Care and Use of Laboratory Animals (National Academy of Sciences; Copyright® 1996) and the Institutional Animal Care and Use Committee guidelines at Procter and Gamble Pharmaceuticals. We studied 9-10 week old male C57B1/6 mice from Charles River Laboratory (Portage, Mich.). The mice are orally dosed with vehicle (aqueous carbonate buffer, 50 mM; pH 9.0) or compound 1 in vehicle at 50 mg/kg or 100 mg/kg. The animals are dosed three times: day 1 at Sam and 5 pm, day 2 at 8 am. One hour after the first dose, unilateral arterial ligation is performed under anesthesia using isoflurane. The femoral artery is ligated proximal to the origin of the popliteal artery. The contralateral limb underwent a sham surgical procedure. Ligation is performed in an alternating fashion between right and left hindlimbs. Two hours after Sam dosing on day 2, we obtained blood by ventricular stick while the mice are anesthetized with isoflurane. Serum samples for EPO analysis are obtained using gel clot serum separation tubes. Heart, liver, and gastrocnemius muscles are harvested, snap-frozen in liquid nitrogen, and stored in −80° C. until use.
The mouse serum EPO is detected using Mouse Quantikine Erythropoietin ELISA kit from R&D Systems according to manufacturer's instructions.

HIF-1α = assay: Mouse Tissue HIF Western Blot Analysis; format: in vivo; details: FIG. 1
Description: as §1, §2
Mouse Tissue HIF Western Blot Analysis
Tissues from mice stored at −80° C. are powdered with mortar and pestle chilled with liquid nitrogen. […]

Row | Compound | EPO response (EPO) | stabilization of HIF-1α in mouse liver (immunoblot of nuclear extracts) (HIF-1α) | erythropoietin level versus vehicle in mouse serum (EPO; mouse serum after oral dosing, FIG. 2)
1 | Cc1ccc(-c2ccc(C(=O)NCC(=O)O)c(O)c2)cc1 [[(3-Hydroxy-4′-methyl-biphenyl-4-carbonyl)-amino]-acetic acid] | yes | – | –
2 | Cc1ccc(-c2cnc(C(=O)NCC(=O)O)c(O)c2)cc1 [[(3-Hydroxy-5-(4-methylphenyl)pyridine-2-carbonyl)amino]-acetic acid] | yes | – | –
3 | COC(=O)CNC(=O)c1ncc(-c2ccccc2Cl)cc1O [{[5-(2-Chlorophenyl)-3-hydroxy-pyridine-2-carbonyl]-amino}-acetic acid methyl ester] | yes | – | –
4 | O=C(O)CNC(=O)c1ncc(-c2ccccc2Cl)cc1O [{[5-(2-Chlorophenyl)-3-hydroxypyridine-2-carbonyl]amino}-acetic acid] | yes | – | –
5 | COC(=O)CNC(=O)c1ncc(-c2cccc(Cl)c2)cc1O [{[5-(3-Chloro-phenyl)-3-hydroxy-pyridine-2-carbonyl]-amino}acetic acid methyl ester] | yes | – | –
6 | O=C(O)CNC(=O)c1ncc(-c2cccc(Cl)c2)cc1O [{[5-(3-Chlorophenyl)-3-hydroxypyridine-2-carbonyl]amino}-acetic acid] | yes | stabilization of HIF-1α | elevated
7 | N#Cc1ccc(-c2cnc(C(=O)NCC(=O)O)c(O)c2)cc1 [{[5-(4-Cyanophenyl)-3-hydroxypyridine-2-carbonyl]amino}-acetic acid] | yes | – | –
8 | {[5-(4-Chlorophenyl)-3-hydroxypyridine-2-carbonyl]amino}-acetic acid | yes | – | –
